Assay results: PubChem BioAssay AID2060890 (Molecular Pharmacology Branch, DTP, NCI, 2025)

System: LG0703-F948-PDC complex spheroid viability
Assay: Anticancer human tumor LG0703-F948-PDC patient-derived lung adenocarcinoma cell line growth inhibition [RAS]
Settings: for IC50: curve of first compound; for viability, T/C: stronger effect = lower value
Source text: RAS pathway inhibitors in Combinations in Complex Spheroids
A high-throughput screen of multi-cell type tumor spheroids was designed to identify active combinations of RAS pathway inhibitors and targeted small molecules. Complex spheroids include a stromal component modeled by human endothelial cells (HUVEC) and fibroblasts modeled by human mesenchymal stem cells (MSCs). The concentration ranges selected for each drug and investigational agent were based upon clinically achievable concentrations if the clinical Cmax of the agent was known.
Compounds. The drugs and investigational agents: abemaciclib (NSC768073), cobimetinib (NSC768068), divarasib (GDC6063, NSC841802), docetaxel (NSC628503), GDC-1971 (RLY-1971, NSC841576), gemcitabine (NSC613327), inavolisib (NSC800729), ipatasertib (NSC767898), KB-0742 (NSC834161), MRTX-1133 (NSC836407), osimertinib (NSC779217), RMC-4630 (NSC839698), RMC-6236 (NSC851965), RMC-6291 (NSC852671), Ro-3306 (NSC812927), sapanisertib (NSC764658), SN-38 (NSC673596), staurosporine (NSC755774), SY5609 (NSC837396), and tovorafenib (DAY101, NSC766906), were obtained from the National Cancer Institute (NCI) Developmental Therapeutics Program Chemical Repository. The FDA-approved anticancer drug set is available from the NCI Developmental Therapeutics Program. […] The stock solutions were prepared in dimethyl sulfoxide (DMSO, Sigma-Aldrich, St. Louis, MO, cat. D2650) at 800-fold the tested concentration and stored at -70 degrees C prior to their use. All drugs and investigational agents were tested over a range starting from a high concentration at or near the clinical Cmax and decreasing in half-log increments. If the clinical Cmax for an agent had not been determined, the highest concentration tested was 10 microM.
Cell Culture. All cells were maintained in an incubator at 37 degrees C and 5% CO2 with 95% humidity. The PDC lines were cultured according to standard operating procedures established by the NCI PDMR. All PDCs were thawed and cultured in Matrigel-coated flasks prepared with a working solution of 1X Ham's F-12 nutrient mix, without supplementation (Invitrogen, Waltham, MA, cat. 11765054), 100 U/mL penicillin-streptomycin (Invitrogen, cat. 15140122), and 2.5% Matrigel (Corning Inc., Corning, NY, cat. 354248) for the first three passages. The 362531-283-R-J2-PDC and 782815-120-R-J1-PDC lines were cultured in 6C/Colon 1B media, which includes advanced DMEM/F-12 (Thermo Fisher Scientific, cat. 12634028), 10 mM HEPES (Thermo Fisher Scientific, cat. 15630080), 1X GlutaMAX supplement (Thermo Fisher Scientific, cat. 35050061), 0.1 mg/mL primocin (InvivoGen, San Diego, CA, cat. ant-pm-2), 10% defined fetal bovine serum, heat inactivated (HyClone Laboratories Inc., Logan, UT, cat. SH30070.03HI), 50% L-WRN conditioned media (ATCC, cat. CRL-3276), 1.25 mM N-Acetyl-L-cysteine (Sigma-Aldrich, cat. A9165), 10 mM nicotinamide (Sigma-Aldrich, cat. N0636), 1X B-27 supplement (Thermo Fisher Scientific, cat. 17504044), 1X N-2 supplement (Thermo Fisher Scientific, cat. 17502048), 50 ng/mL human EGF (Thermo Fisher Scientific, cat. PHG0311), and 10 microM Y-27632 dihydrochloride (Tocris Bioscience, cat. 1254). The K12877-001-R-J1-PDC line was cultured in 6I media, which includes all 6C/Colon 1B media plus 10 ng/mL human FGF-10 (PeproTech, cat. 100-26), 1 ng/mL human FGF-2 (PeproTech, cat. 100-18B), 1 µM prostaglandin E2 (Tocris Bioscience, cat. 2296), […] hydrocortisone (Sigma-Aldrich, cat. H4001), and […] bovine insulin (Sigma-Aldrich, cat. I6634). The K86415-001-R-J1-PDC line was cultured in 6D media, which includes all 6C/Colon 1B media components minus the L-WRN conditioned media. The 485176-168-R4-J1-PDC was cultured in PANC media, which includes all 6C/Colon 1B media plus 100 ng/mL human FGF-10 (PeproTech, cat. 100-26), 500 nM SB-431542 (Selleckchem, cat. S1067), and 10 nM gastrin (Tocris Bioscience, cat. 3006). […]

[1] = second compound 0.000949 µM, first compound 0.0316 µM
[2] = second compound 0.000949 µM, first compound 0.1 µM
[3] = second compound 0.000949 µM, first compound 0.316 µM
[4] = second compound 0.000949 µM, first compound 1 µM
[5] = second compound 0.003 µM, first compound 0.0316 µM
[6] = second compound 0.003 µM, first compound 0.1 µM
[7] = second compound 0.003 µM, first compound 0.316 µM
[8] = second compound 0.003 µM, first compound 1 µM
[9] = second compound 0.00949 µM, first compound 0.0316 µM
[10] = second compound 0.00949 µM, first compound 0.1 µM
[11] = second compound 0.00949 µM, first compound 0.316 µM
[12] = second compound 0.00949 µM, first compound 1 µM
[13] = second compound 0.03 µM, first compound 0.0316 µM
[14] = second compound 0.03 µM, first compound 0.1 µM
[15] = second compound 0.03 µM, first compound 0.316 µM
[16] = second compound 0.03 µM, first compound 1 µM
[17] = second compound 0.0949 µM, first compound 0.0316 µM
[18] = second compound 0.0949 µM, first compound 0.1 µM
[19] = second compound 0.0949 µM, first compound 0.316 µM
[20] = second compound 0.0949 µM, first compound 1 µM
[21] = second compound 0.3 µM, first compound 0.0316 µM
[22] = second compound 0.3 µM, first compound 0.1 µM
[23] = second compound 0.3 µM, first compound 0.316 µM
[24] = second compound 0.3 µM, first compound 1 µM
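For viability, T/C in this document: 100% = DMSO vehicle wells.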

## Cc1nc(N2CCC3(CC2)COC(C)C3N)c(CO)nc1Sc1ccnc(N)c1Cl (centres undefined) + CCn1c(-c2cc(N3CCN(C)CC3)cnc2C(C)OC)c2c3cc(ccc31)-c1csc(n1)CC(NC(=O)C1CC1C)C(=O)N1CCCC(N1)C(=O)OCC(C)(C)C2
Second compound 0.000949 µM
  IC50: 93 nM
Second compound 0.003 µM
  IC50: < 31.6 nM
Second compound 0.00949 µM
  IC50: < 31.6 nM
Second compound 0.03 µM
  IC50: < 31.6 nM
Second compound 0.0949 µM
  IC50: < 31.6 nM
Second compound 0.3 µM
  IC50: < 31.6 nM
[1]
  viability, T/C: 68%
[2]
  viability, T/C: 48%
[3]
  viability, T/C: 32.7%
[4]
  viability, T/C: 18.2%
Second compound 0.000949 µM, first compound 3.16 µM
  viability, T/C: 11.3%
Second compound 0.000949 µM, first compound 10 µM
  viability, T/C: 8.65%
[5]
  viability, T/C: 32.3%
[6]
  viability, T/C: 23.9%
[7]
  viability, T/C: 21.1%
[8]
  viability, T/C: 14.9%
Second compound 0.003 µM, first compound 3.16 µM
  viability, T/C: 6.78%
Second compound 0.003 µM, first compound 10 µM
  viability, T/C: 5.16%
[9]
  viability, T/C: 26%
[10]
  viability, T/C: 15.7%
[11]
  viability, T/C: 10.6%
[12]
  viability, T/C: 10.2%
Second compound 0.00949 µM, first compound 3.16 µM
  viability, T/C: 6.57%
Second compound 0.00949 µM, first compound 10 µM
  viability, T/C: 7.31%
[13]
  viability, T/C: 13.2%
[14]
  viability, T/C: 11.6%
[15]
  viability, T/C: 8.59%
[16]
  viability, T/C: 4.72%
Second compound 0.03 µM, first compound 3.16 µM
  viability, T/C: 7.7%
Second compound 0.03 µM, first compound 10 µM
  viability, T/C: 5.42%
[17]
  viability, T/C: 10.1%
[18]
  viability, T/C: 7.94%
[19]
  viability, T/C: 6.73%
[20]
  viability, T/C: 6.62%
Second compound 0.0949 µM, first compound 3.16 µM
  viability, T/C: 6.38%
Second compound 0.0949 µM, first compound 10 µM
  viability, T/C: 3.71%
[21]
  viability, T/C: 7.15%
[22]
  viability, T/C: 6.24%
[23]
  viability, T/C: 5.96%
[24]
  viability, T/C: 3.97%
Second compound 0.3 µM, first compound 3.16 µM
  viability, T/C: 3.82%
Second compound 0.3 µM, first compound 10 µM
  viability, T/C: 4.35%

## Nc1ccn(C2OC(CO)C(O)C2(F)F)c(=O)n1 (centres undefined) + CCn1c(-c2cc(N3CCN(C)CC3)cnc2C(C)OC)c2c3cc(ccc31)-c1csc(n1)CC(NC(=O)C1CC1C)C(=O)N1CCCC(N1)C(=O)OCC(C)(C)C2
Second compound 0.000949 µM
  IC50: 6.69 nM
Second compound 0.003 µM
  IC50: < 3.16 nM
Second compound 0.00949 µM
  IC50: < 3.16 nM
Second compound 0.03 µM
  IC50: < 3.16 nM
Second compound 0.0949 µM
  IC50: < 3.16 nM
Second compound 0.3 µM
  IC50: < 3.16 nM
Second compound 0.000949 µM, first compound 0.00316 µM
  viability, T/C: 65.9%
Second compound 0.000949 µM, first compound 0.01 µM
  viability, T/C: 42.5%
[1]
  viability, T/C: 33.1%
[2]
  viability, T/C: 40.5%
[3]
  viability, T/C: 39.5%
[4]
  viability, T/C: 36.2%
Second compound 0.003 µM, first compound 0.00316 µM
  viability, T/C: 46.4%
Second compound 0.003 µM, first compound 0.01 µM
  viability, T/C: 31.9%
[5]
  viability, T/C: 34.1%
[6]
  viability, T/C: 28.7%
[7]
  viability, T/C: 29.6%
[8]
  viability, T/C: 32.8%
Second compound 0.00949 µM, first compound 0.00316 µM
  viability, T/C: 22.8%
Second compound 0.00949 µM, first compound 0.01 µM
  viability, T/C: 18.3%
[9]
  viability, T/C: 17.4%
[10]
  viability, T/C: 13.7%
[11]
  viability, T/C: 19.2%
[12]
  viability, T/C: 18.3%
Second compound 0.03 µM, first compound 0.00316 µM
  viability, T/C: 10.1%
Second compound 0.03 µM, first compound 0.01 µM
  viability, T/C: 11.4%
[13]
  viability, T/C: 15.6%
[14]
  viability, T/C: 14.2%
[15]
  viability, T/C: 14.9%
[16]
  viability, T/C: 10.5%
Second compound 0.0949 µM, first compound 0.00316 µM
  viability, T/C: 12.6%
Second compound 0.0949 µM, first compound 0.01 µM
  viability, T/C: 8.4%
[17]
  viability, T/C: 9.27%
[18]
  viability, T/C: 9.86%
[19]
  viability, T/C: 8.62%
[20]
  viability, T/C: 8.16%
Second compound 0.3 µM, first compound 0.00316 µM
  viability, T/C: 10.5%
Second compound 0.3 µM, first compound 0.01 µM
  viability, T/C: 7.77%
[21]
  viability, T/C: 11%
[22]
  viability, T/C: 6.54%
[23]
  viability, T/C: 6.46%
[24]
  viability, T/C: 5.98%
